Reference: publication PMC6150379, “Novel Triazole Hybrids of Betulin: Synthesis and Biological Activity Profile” (Molecules : A Journal of Synthetic Chemistry and Natural …, 2017)
Values after ≈ are worked out from the molar mass of the structure shown.

Assays:
[1] = test system: Colo-829 (human malignant melanoma); assay: Cytotoxic activity, WST-1 assay; assay type: cell-based; conditions: Colo-829, 72 h, Neg = negative in the concentration used
[2] = test system: C-32 (human amelanotic melanoma); assay: Cytotoxic activity, WST-1 assay; assay type: cell-based; conditions: C-32, 72 h, Neg = negative in the concentration used
[3] = test system: MCF-7 (human adenocarcinoma); assay: Cytotoxic activity, WST-1 assay; assay type: cell-based; conditions: MCF-7, 72 h, Neg = negative in the concentration used
[4] = test system: T47D (human ductal carcinoma); assay: Cytotoxic activity, WST-1 assay; assay type: cell-based; conditions: for IC50 / IC50 ± SD: 72 h, Neg = negative in the concentration used; for potency relative to cisplatin: ratio of IC50 values
SNB-19 (glioblastoma) = assay: Cytotoxic activity, WST-1 assay; assay type: cell-based, human; conditions: SNB-19, 72 h, Neg = negative in the concentration used
[5] = test system: SKOV-3 human ovarian cancer cell line; assay: Inhibition of tumor cell proliferation (MTT); conditions: SK-OV-3, 96 h, read-out: Max. Inhibition (% of Control)
Experimental: Antiproliferative activities of the compounds were measured by the MTT assay using A549 cells and a human ovarian cancer cell line SKOV-3 (adenocarcinoma ATCC® HTB77™). A total of 2 × 10^3 cells in DMEM medium supplemented with 5% FBS were placed in each well of a 96-well flat-bottom plate. After 24 h of incubation at 37 °C in 5% CO2, the growth medium was replaced by media containing different concentrations of the derivatives. Control cultures received cisplatin 0.1–10 μg/mL, and blank wells contained 100 μL of growth medium with no cells. After 96 h of incubation, cell proliferation was determined by the colorimetric MTT assay (570 nm) reading for each concentration compared with the control. At least three replicates for each sample were used to determine the cell proliferation.

in vitro = conditions: human
Experimental: The cytotoxic effect of compounds on A549 cells was determined by the MTT method, as previously described [36]. The MTT assay is the enzyme-based method, which use the 3-(4,5-dimethylthiazol-2-yl)-2,5-diphenyltetrazolium bromide as a reductive coloring agent. Briefly, subconfluent monolayers of A549 cells (2 × 10^4 cell/well in Dulbecco’s Minimal Essential Medium (DMEM) supplemented with 5% fetal bovine serum (FBS), antibiotics (100 U/mL penicillin and 100 μg/mL streptomycin), and 2 mM L-glutamine (all from Sigma Aldrich, St. Louis, MO, USA) were incubated in 96-multi-well plates in the presence of dilutions of the compounds ranging from 100 μg/mL to 0.5 μg/mL, in triplicate for 48 h at 37 °C in a humidified atmosphere with 5% CO2. After 48 h, 20 μL of MTT solution (Promega, Madison, WI, USA) was added to each well, and the microplates were kept at 37 °C/5% CO2 for 3 h. Then, the solubilization/stop solution containing SDS-HCl (100 μL/well) was added, and the absorbance values of the wells were measured at 570 nm using a 96-well plate reader (Multiskan RC spectrophotometer, Thermo Labsystems, Waltham, MA, USA). Cell viability (%) was calculated for each concentration as Abs treated/Abs control × 100, where Abs treated and Abs control are the absorbance readings for the wells with and without the tested compounds, respectively. The 50% cytotoxic concentration (CC50) was defined as the concentration that reduced cell viability by 50% with respect to controls without drugs. The CC50 value was calculated from the corresponding dose–response curves.

[6] = test system: cytopathogenic bovine orphan virus (ECBO) strain LCR-4; assay: Time of addition assay (post-adsorption), CPE/MTT in A549 cells; assay type: cell-based, cytopathogenic bovine orphan virus (BEV-1); conditions: for EC50: A549; for SI: selectivity index, ratio of CC50 to EC50, ECBO in A549 cells

Compound	IC50 ([1]; Homo sapiens) [µM]	melting point [°C]	IC50 ± SD [2]	IC50 ([3]; Homo sapiens, MCF7) [µM]	IC50 ([4]; Homo sapiens) [µM]	IC50 (SNB-19 (glioblastoma); Homo sapiens) [µM]	IC50 ± SD [3]	IC50 ± SD [4]	further results
N.N.[Cl][Pt][Cl] [Cisplatin, reference compound]	–	–	–	–	–	–	–	–	IC50 [1]: 16.8 ± 1.7 µM; IC50 [2]: 12.3 ± 2.1 µM; IC50 [3]: 5.5 ± 1 µM; IC50 [4]: 24.9 ± 1.1 µM; IC50 (SNB-19 (glioblastoma)): 2.3 ± 0.05 µM
C=C(C)C1CC[C@]2(COC(=O)c3cn(Cc4ccccc4)nn3)CC[C@]3(C)C(CCC4[C@@]5(C)CC[C@H](O)C(C)(C)C5CC[C@]43C)C12 (some centres unmarked) [Compound 5a, 28-O-(1-Benzyl-1H-1,2,3-triazol-4-yl)carbonylbetulin]	78.5 ± 8.3	169 to 171	Neg	58.8 ± 1.5	10.5 ± 0.09	96.2 ± 1.2	–	–	inhibition at 25 µg/mL [5]: 40%
C=C(C)C1CC[C@]2(COC(=O)c3cn(Cc4ccc(F)cc4)nn3)CC[C@]3(C)C(CCC4[C@@]5(C)CC[C@H](O)C(C)(C)C5CC[C@]43C)C12 (some centres unmarked) [Compound 5b, 28-O-[1-(4-Fluorobenzyl)-1H-1,2,3-triazol-4-yl]carbonylbetulin]	129 ± 7.7	144 to 147	Neg	–	8.5 ± 0.02	66.1 ± 0.7	Neg	–	inhibition at 10 µg/mL [5]: 40%
C=C(C)C1CC[C@]2(COC(=O)c3cn(Cc4ccc(C#N)cc4)nn3)CC[C@]3(C)C(CCC4[C@@]5(C)CC[C@H](O)C(C)(C)C5CC[C@]43C)C12 (some centres unmarked) [Compound 5c, 28-O-[1-(4-Cyanobenzyl)-1H-1,2,3-triazol-4-yl]carbonylbetulin]	9.7 ± 0.1	225 to 228	Neg	–	1.4 ± 0.01	0.7 ± 0.08	Neg	–	–
C=C(C)C1CC[C@]2(COC(=O)c3cn(CSc4ccccc4)nn3)CC[C@]3(C)C(CCC4[C@@]5(C)CC[C@H](O)C(C)(C)C5CC[C@]43C)C12 (some centres unmarked) [Compound 5d, 28-O-(1-Phenylthiomethyl-1H-1,2,3-triazol-4-yl)carbonylbetulin]	100 ± 5.5	143 to 146	Neg	–	52.5 ± 1.4	13 ± 0.09	Neg	–	inhibition at 10 µg/mL [5]: 40%
C=C(C)C1CCC2(COC(=O)c3cn(C4OC(CO)C(O)C(O)C4O)nn3)CCC3(C)C(CCC4C5(C)CCC(O)C(C)(C)C5CCC43C)C12 [Compound 5f, 28-O-[1-(1-Deoxy-β-D-glucopyranosyl)-1H-1,2,3-triazol-4-yl]carbonylbetulin]	110 ± 7.2	184 to 186	Neg	–	–	–	Neg	total decay of cytotoxic activity and Neg	CC50 at 48 h (in vitro): 100 µg/mL (≈ 143 µM); inhibition at 25 µg/mL [5]: 35%; EC50 [6]: 5 µg/mL (≈ 7.14 µM); SI [6]: 20.0; IC50 ± SD (SNB-19 (glioblastoma)): Neg
C=C(C)C1CC[C@]2(COC(=O)c3cn(CC(=O)OCC)nn3)CC[C@]3(C)C(CCC4[C@@]5(C)CC[C@H](O)C(C)(C)C5CC[C@]43C)C12 (some centres unmarked) [Compound 5g, 28-O-(1-Ethylacetyl-1H-1,2,3-triazol-4-yl)carbonylbetulin]	11.4 ± 0.2	176 to 181	Neg	–	135 ± 2.6	92.3 ± 0.9	Neg	–	–
C=C(C)C1CC[C@]2(COC(=O)c3cn(CCCO)nn3)CC[C@]3(C)C(CCC4[C@@]5(C)CC[C@H](O)C(C)(C)C5CC[C@]43C)C12 (some centres unmarked) [Compound 5h, 28-O-[1-(3-Hydroxypropyl)-1H-1,2,3-triazol-4-yl]carbonylbetulin]	6.2 ± 0.6	–	–	15.5 ± 1.1	1.3 ± 0.05	9.9 ± 0.7	–	–	CC50 at 48 h (in vitro): 27.7 µg/mL (≈ 46.5 µM); IC50 ([2]; Homo sapiens): 80.3 ± 5.8 µM; potency relative to cisplatin [4]: 19 fold; EC50 [6]: 0.5 µg/mL (≈ 0.839 µM); SI [6]: 55.5
C=C(C)C1CC[C@]2(COC(=O)c3cn(CCCN)nn3)CC[C@]3(C)C(CCC4[C@@]5(C)CC[C@H](O)C(C)(C)C5CC[C@]43C)C12 (some centres unmarked) [Compound 5i, 28-O-[1-(3-Aminopropyl)-1H-1,2,3-triazol-4-yl]carbonylbetulin]	0.6 ± 0.13	156 to 160	–	6.94 ± 0.8	3.63 ± 0.3	0.9 ± 0.03	–	–	IC50 ([2]; Homo sapiens): 7.9 ± 0.9 µM
C=C(C)C1CC[C@]2(COC(=O)c3cn(CC(N)C(=O)O)nn3)CC[C@]3(C)C(CCC4[C@@]5(C)CC[C@H](O)C(C)(C)C5CC[C@]43C)C12 (some centres unmarked) [Compound 5j, 2-Amino-3-[4-(28-O-betulinylcarbonyl)-1H-1,2,3-triazol-1-yl]propanoic acid]	3.3 ± 1.1	265 to 269	Neg	–	–	–	Neg	total decay of cytotoxic activity and Neg	CC50 at 48 h (in vitro): 100 µg/mL (≈ 160 µM); inhibition at 10 µg/mL [5]: 40%; EC50 [6]: 5 µg/mL (≈ 8 µM); SI [6]: 20.0; IC50 ± SD (SNB-19 (glioblastoma)): Neg
C=C(C)C1CC[C@]2(COC(=O)c3cn(C(C(=O)O)C(C)C)nn3)CC[C@]3(C)C(CCC4[C@@]5(C)CC[C@H](O)C(C)(C)C5CC[C@]43C)C12 (some centres unmarked) [Compound 5k]	8.7 ± 0.5	293 to 297	–	37.2 ± 0.7	7.2 ± 0.2	6.3 ± 0.9	–	–	IC50 ([2]; Homo sapiens): 46.9 ± 2.5 µM
C=C(C)C1CC[C@]2(COC(=O)c3cn(Cc4ccccc4)nn3)CC[C@]3(C)C(CCC4[C@@]5(C)CC[C@H](OC(=O)c6cn(Cc7ccccc7)nn6)C(C)(C)C5CC[C@]43C)C12 (some centres unmarked) [Compound 6a, 3,28-O,O’-Di[(1-benzyl-1H-1,2,3-triazol-4-yl)carbonyl]betulin]	80.7 ± 1.8	117 to 120	Neg	–	–	24.4 ± 1.3	Neg	Neg	–
C=C(C)C1CC[C@]2(COC(=O)c3cn(Cc4ccc(F)cc4)nn3)CC[C@]3(C)C(CCC4[C@@]5(C)CC[C@H](OC(=O)c6cn(Cc7ccc(F)cc7)nn6)C(C)(C)C5CC[C@]43C)C12 (some centres unmarked) [Compound 6b, 3,28-O,O’-Di[1-(4-fluorobenzyl-1H-1,2,3-triazol-4-yl)carbonyl]betulin]	–	155 to 158	Neg	0.09 ± 0.01	0.05 ± 0.01	0.08 ± 0.01	–	–	IC50 ± SD [1]: Neg; potency relative to cisplatin [4]: 500 fold
C=C(C)C1CC[C@]2(COC(=O)c3cn(Cc4ccc(C#N)cc4)nn3)CC[C@]3(C)C(CCC4[C@@]5(C)CC[C@H](OC(=O)c6cn(Cc7ccc(C#N)cc7)nn6)C(C)(C)C5CC[C@]43C)C12 (some centres unmarked) [Compound 6c, 3,28-O,O’-Di[1-(4-cyanobenzyl-1H-1,2,3-triazol-4-yl)carbonyl]betulin]	–	–	Neg	60.7 ± 0.6	1.1 ± 0.01	0.06 ± 0.01	–	–	IC50 ± SD [1]: Neg
C=C(C)C1CC[C@]2(COC(=O)c3cn(CSc4ccccc4)nn3)CC[C@]3(C)C(CCC4[C@@]5(C)CC[C@H](OC(=O)c6cn(CSc7ccccc7)nn6)C(C)(C)C5CC[C@]43C)C12 (some centres unmarked) [Compound 6d, 3,28-O,O’-Di[(1-phenylthiomethyl-1H-1,2,3-triazol-4-yl)carbonyl]betulin]	103 ± 4.7	127 to 131	–	0.9 ± 0.08	0.9 ± 0.05	0.5 ± 0.02	–	–	IC50 ([2]; Homo sapiens): 100 ± 2.8 µM
C=C(C)C1CCC2(COC(=O)c3cn(C4CC(n5cc(C)c(=O)[nH]c5=O)OC4CO)nn3)CCC3(C)C(CCC4C5(C)CCC(OC(=O)c6cn(C7CC(n8cc(C)c(=O)[nH]c8=O)OC7CO)nn6)C(C)(C)C5CCC43C)C12 (centres unmarked) [Compound 6e, 3,28-O,O’-Di[1-(3′-deoxythymidine-5′-yl-1H-1,2,3-triazol-4-yl)carbonyl]betulin]	–	224 to 227	total decay of cytotoxic effect and Neg	–	–	–	total decay of cytotoxic effect and Neg	total decay of cytotoxic effect and Neg	IC50 ± SD [1]: total decay of cytotoxic effect and Neg; IC50 ± SD (SNB-19 (glioblastoma)): total decay of cytotoxic effect and Neg
C=C(C)C1CCC2(COC(=O)c3cn(C4OC(CO)C(O)C(O)C4O)nn3)CCC3(C)C(CCC4C5(C)CCC(OC(=O)c6cn(C7OC(CO)C(O)C(O)C7O)nn6)C(C)(C)C5CCC43C)C12 [Compound 6f, 3,28-O,O’-Di[1-(1-deoxy-β-D-glucopyranosyl-1H-1,2,3-triazol-4-yl)carbonyl]betulin]	–	–	total decay of cytotoxic effect and Neg	–	–	–	total decay of cytotoxic effect and Neg	total decay of cytotoxic effect and Neg	CC50 at 48 h (in vitro): 100 µg/mL (≈ 104 µM); IC50 ± SD [1]: total decay of cytotoxic effect and Neg; EC50 [6]: 5 µg/mL (≈ 5.22 µM); SI [6]: 20.0; IC50 ± SD (SNB-19 (glioblastoma)): total decay of cytotoxic effect and Neg
C=C(C)C1CC[C@]2(COC(=O)c3cn(CC(=O)OCC)nn3)CC[C@]3(C)C(CCC4[C@@]5(C)CC[C@H](OC(=O)c6cn(CC(=O)OCC)nn6)C(C)(C)C5CC[C@]43C)C12 (some centres unmarked) [Compound 6g, 3,28-O,O’-Di-[(1-ethylacetyl-1H-1,2,3-triazol-4-yl)carbonyl]betulin]	97.6 ± 3.3	–	Neg	–	–	–	Neg	Neg	IC50 ± SD (SNB-19 (glioblastoma)): Neg
